One may read the IC50 as the midpoint of a concentration-inhibition curve.

Here are results for 28 molecules from US10759790B2, “Heterocyclic constrained tricyclic sulfonamides as anti-cancer agents” (ICAHN SCHOOL OF MEDICINE AT MOUNT SINAI, priority 2015, dated 2020).

One data set concerns H1650 lung cancer cells. Briefly: Cell viability assay (MTT, IC50 determination). The data set is classed as cell-based. As to conditions: Homo sapiens, NCI-H1650, 48 h, read-out: H1650 cell viability IC50. The method, then:
Cell viability assays were performed according to Denizot, F. and R. Lang, Journal of Immunological Methods, 1986. 89(22): p. 271-277. H1650 lung cancer cells were plated at 150,000 cells per well in a 12 well plate. Twenty-four hours after plating, cells were treated as described with increasing concentrations of drug and control. Forty-eight hours after drug treatment, cells were treated with 100 μL of 3-(4,5-Dimethylthiazol-2-yl)-2,5-diphenyltetrazolium bromide (MTT) and incubated for 2 hours at 37 C. The MTT solution was subsequently replaced with 300 μL of n-propyl alcohol and re-aliquoted to a 96 well plate. Spectrophotometric analysis of each solution was performed using a 96 well plate reader at 600 nm in triplicate.
Consider `CC(=O)N1C[C@@H](NS(=O)(=O)c2ccc(OC(F)(F)F)cc2)[C@H](O)[C@@H](N2c3ccccc3Oc3ccccc32)C1` [Example 18a, N-((3R,4R,5S)-1-acetyl-4-hydroxy-5-(10H-phenoxazin-10-yl)piperidin-3-yl)-4-(trifluoromethoxy)benzenesulfonamide], for which the IC50 worked out at 25 µM.

Consider `[N-]=[N+]=Nc1ccc(S(=O)(=O)N[C@@H]2COC[C@H](N3c4ccccc4Oc4ccccc43)[C@H]2O)cc1` [Example 6], for which the 50% inhibitory concentration (IC50) turned out to be 25 µM.

For `COC(=O)N1C[C@@H](NS(=O)(=O)c2ccc(OC(F)(F)F)cc2)[C@H](O)[C@@H](N2c3ccccc3Oc3ccccc32)C1` [Example 20a, (3S,4R,5R)-methyl 4-hydroxy-3-(10H-phenoxazin-10-yl)-5-(4-(trifluoromethoxy)phenylsulfonamido)piperidine-1-carboxylate], the IC50 is 15 µM.

Still in this data set, the particulars now being: Homo sapiens, NCI-H1650; H1650 lung cancer cells, MTT, 48 hours after drug treatment; read-out: H1650 cell viability IC50.
As for `CC(C)(C)OC(=O)N1CC(N2c3ccccc3Oc3ccccc32)[C@@H](O)[C@H](NS(=O)(=O)c2ccc(OC(F)(F)F)cc2)C1` (mixture of isomers) [Example 16, Rac-(3S,4R,5R)-tert-butyl 4-hydroxy-3-(10H-phenoxazin-10-yl)-5-(4-(trifluoromethoxy)phenylsulfonamido)piperidine-1-carboxylate], the IC50 came out at 10 µM.

`O=S(=O)(N[C@@H]1COC[C@H](n2c3ccccc3c3ccccc32)[C@H]1O)c1ccc(OC(F)(F)F)cc1` [Example 50, N-((3R,4R,5S)-5-(9H-carbazol-9-yl)-4-hydroxytetrahydro-2H-pyran-3-yl)-4-(trifluoromethoxy)benzenesulfonamide]: the IC50 was determined as 10 µM.

Regarding `O=S(=O)(N[C@@H]1COC[C@H](N2c3ccccc3Oc3cc(C(F)(F)F)ccc32)[C@H]1O)c1ccc(OC(F)(F)F)cc1` [Example 15, N-((3R,4R,5S)-4-hydroxy-5-(3-(trifluoromethyl)-10H-phenoxazin-10-yl)tetrahydro-2H-pyran-3-yl)-4-(trifluoromethoxy)benzenesulfonamide], the IC50 amounted to 5 µM.

With `O=S(=O)(N[C@@H]1COC[C@H](N2c3ccccc3Oc3ccccc32)[C@H]1O)c1ccc(Cl)s1` [Example 62, 5-chloro-N-((3R,4R,5S)-4-hydroxy-5-(10H-phenoxazin-10-yl)tetrahydro-2H-pyran-3-yl)thiophene-2-sulfonamide], the IC50 worked out at 15 µM.

With `O=S(=O)(N[C@@H]1CNC[C@H](n2c3ccc(Cl)cc3c3cc(Cl)ccc32)[C@H]1O)c1ccc(OC(F)(F)F)cc1` [Example 44], the IC50 was found to be 10 µM.

Take `CN1C[C@@H](NS(=O)(=O)c2ccc(OC(F)(F)F)cc2)[C@H](O)[C@@H](N2c3ccccc3Oc3ccccc32)C1` [Example 19a]: the 50% inhibitory concentration (IC50) came to 25 µM.

`Cc1ccc2c(c1)c1cc(C)ccc1n2[C@H]1COC[C@@H](NS(=O)(=O)c2ccc(OC(F)(F)F)cc2)[C@@H]1O` [Example 51, N-((3R,4R,5S)-5-(3,6-dimethyl-9H-carbazol-9-yl)-4-hydroxytetrahydro-2H-pyran-3-yl)-4-(trifluoromethoxy)benzenesulfonamide]: the IC50 worked out at 5 µM.

Take `CC(C)(C)OC(=O)N1C[C@H](NS(=O)(=O)c2ccc(OC(F)(F)F)cc2)[C@@H](O)[C@H](N2c3ccccc3Oc3ccccc32)C1` [Example 16b, (3R,4S,5S)-tert-butyl 4-hydroxy-3-(10H-phenoxazin-10-yl)-5-(4-(trifluoromethoxy)phenylsulfonamido)piperidine-1-carboxylate]: the half-inhibitory concentration (IC50) was found to be 10 µM.

Regarding `O=S(=O)(N[C@@H]1COC[C@H](n2c3ccccc3c3cc(F)ccc32)[C@H]1O)c1ccc(OC(F)(F)F)cc1` [Example 4, N-((3R,4R,5S)-5-(3-fluoro-9H-carbazol-9-yl)-4-hydroxytetrahydro-2H-pyran-3-yl)-4-(trifluoromethoxy)benzenesulfonamide], the IC50 worked out at 15 µM.

As to `CC(C)(C)OC(=O)N1C[C@@H](NS(=O)(=O)c2ccc(OC(F)(F)F)cc2)[C@H](O)[C@@H](n2c3ccc(F)cc3c3cc(F)ccc32)C1` [Example 54, (3S,4R,5R)-tert-butyl 3-(3,6-difluoro-9H-carbazol-9-yl)-4-hydroxy-5-(4-(trifluoromethoxy)phenylsulfonamido)piperidine-1-carboxylate], the IC50 amounted to 5 µM.

As for `O=S(=O)(N[C@@H]1CNC[C@H](n2c3ccc(F)cc3c3cc(F)ccc32)[C@H]1O)c1ccc(OC(F)(F)F)cc1` [Example 55, N-((3R,4R,5S)-5-(3,6-difluoro-9H-carbazol-9-yl)-4-hydroxypiperidin-3-yl)-4-(trifluoromethoxy)benzenesulfonamide], the concentration for half-maximal inhibition (IC50) is 5 µM.

For `O=S(=O)(N[C@@H]1COCC(n2c3ccccc3c3ccccc32)[C@H]1O)c1ccc(OC(F)(F)F)cc1` (mixture of isomers) [Example 1, Rac-N-(3R,4R,5S)-5-(9H-carbazol-9-yl)-4-hydroxytetrahydro-2H-pyran-3-yl)-4-(trifluoromethoxy)benzenesulfonamide], the IC50 came out at 15 µM.

For `O=S(=O)(N[C@H]1COC[C@@H](N2c3ccccc3Oc3ccccc32)[C@@H]1O)c1ccc(OC(F)(F)F)cc1` [Example 2b, N-((3S,4S,5R)-4-hydroxy-5-(10H-phenoxazin-10-yl)tetrahydro-2H-pyran-3-yl)-4-(trifluoromethoxy)benzenesulfonamide], the IC50 is 15 µM.

On to `O=S(=O)(N[C@@H]1COC[C@H](N2c3ccccc3Oc3ccc(F)cc32)[C@H]1O)c1ccc(OC(F)(F)F)cc1` [Example 7, N-((3R,4R,5S)-5-(2-fluoro-10H-phenoxazin-10-yl)-4-hydroxytetrahydro-2H-pyran-3-yl)-4-(trifluoromethoxy)benzenesulfonamide], for which the IC50 was determined as 15 µM.

Regarding `CC(C)(C)OC(=O)N1C[C@@H](NS(=O)(=O)c2ccc(OC(F)(F)F)cc2)[C@H](O)[C@@H](n2c3ccccc3c3ccccc32)C1` [Example 52a, (3S,4R,5R)-tert-butyl 3-(9H-carbazol-9-yl)-4-hydroxy-5-(4-(trifluoromethoxy)phenylsulfonamido)piperidine-1-carboxylate], the IC50 was 5 µM.

As for `O=S(=O)(N[C@H]1CNC[C@@H](n2c3ccccc3c3ccccc32)[C@@H]1O)c1ccc(OC(F)(F)F)cc1` [Example 41b, N-((3S,4S,5R)-5-(9H-carbazol-9-yl)-4-hydroxypiperidin-3-yl)-4-(trifluoromethoxy)benzenesulfonamide], the half-maximal inhibitory concentration (IC50) turned out to be 10 µM.

As for `O=S(=O)(N[C@@H]1CNC[C@H](N2c3ccccc3Oc3ccccc32)[C@H]1O)c1ccc(OC(F)(F)F)cc1` [Example 17a, N-((3R,4R,5S)-4-hydroxy-5-(10H-phenoxazin-10-yl)piperidin-3-yl)-4-(trifluoromethoxy)benzenesulfonamide], the IC50 turned out to be 15 µM.

As for `CC(C)(C)OC(=O)N1C[C@@H](NS(=O)(=O)c2ccc(OC(F)(F)F)cc2)[C@H](O)[C@@H](N2c3ccccc3Oc3ccccc32)C1` [Example 16a, (3S,4R,5R)-tert-butyl 4-hydroxy-3-(10H-phenoxazin-10-yl)-5-(4-(trifluoromethoxy)phenylsulfonamido)piperidine-1-carboxylate], the IC50 amounted to 10 µM.

For the molecule `O=S(=O)(N[C@@H]1COC[C@H](N2c3ccccc3Oc3ccccc32)[C@H]1O)c1cccc(Cl)c1` [Example 64, 3-chloro-N-((3R,4R,5S)-4-hydroxy-5-(10H-phenoxazin-10-yl)tetrahydro-2H-pyran-3-yl)benzenesulfonamide], the IC50 was 15 µM.

Take `O=S(=O)(N[C@@H]1COC[C@H](n2c3ccc(F)cc3c3cc(F)ccc32)[C@H]1O)c1ccc(OC(F)(F)F)cc1` [Example 3, N-((3R,4R,5S)-5-(3,6-difluoro-9H-carbazol-9-yl)-4-hydroxytetrahydro-2H-pyran-3-yl)-4-(trifluoromethoxy)benzenesulfonamide]: the IC50 worked out at 10 µM.

Take `O=S(=O)(N[C@@H]1CNC[C@H](N2c3ccc(C(F)(F)F)cc3Oc3cc(C(F)(F)F)ccc32)[C@H]1O)c1ccc(OC(F)(F)F)cc1` [Example 58, N-((3R,4R,5S)-5-(3,7-bis(trifluoromethyl)-10H-phenoxazin-10-yl)-4-hydroxypiperidin-3-yl)-4-(trifluoromethoxy)benzenesulfonamide]: the IC50 stood at 5 µM.

Regarding `O=S(=O)(N[C@@H]1COC[C@H](N2c3ccccc3Oc3cc(F)ccc32)[C@H]1O)c1ccc(OC(F)(F)F)cc1` [Example 11, N-((3R,4R,5S)-5-(3-fluoro-10H-phenoxazin-10-yl)-4-hydroxytetrahydro-2H-pyran-3-yl)-4-(trifluoromethoxy)benzenesulfonamide], the IC50 amounted to 10 µM.

On to `CC(=O)N1CC(NS(=O)(=O)c2ccc(OC(F)(F)F)cc2)[C@H](O)C(N2c3ccccc3Oc3ccccc32)C1` (mixture of isomers) [Example 18, Rac-N-((3R,4R,5S)-1-acetyl-4-hydroxy-5-(10H-phenoxazin-10-yl)piperidin-3-yl)-4-(trifluoromethoxy)benzenesulfonamide], for which the IC50 came out at 20 µM.

The same data set, now with this note: at 40 uM; H1650 lung cancer cells, MTT, 48 hours.
Take `O=S(=O)(N[C@@H]1COC[C@H](N2c3ccccc3Oc3ccccc32)[C@H]1O)c1ccccc1` [Example 60, N-((3R,4R,5S)-4-hydroxy-5-(10H-phenoxazin-10-yl)tetrahydro-2H-pyran-3-yl)benzenesulfonamide]: the “H1650 cell viability, % at 40 uM” value was 37% at 40 uM.

`Nc1cccc(S(=O)(=O)N[C@@H]2COC[C@H](N3c4ccccc4Oc4ccccc43)[C@H]2O)c1` [Example 69, 3-amino-N-((3R,4R,5S)-4-hydroxy-5-(10H-phenoxazin-10-yl)tetrahydro-2H-pyran-3-yl)benzenesulfonamide]: the “H1650 cell viability, % at 40 uM” value turned out to be 54% at 40 uM.
